Holding throughout (format): biochemical
The target in one experiment is T1, CYP3A4 (Homo sapiens, UniProt P08684).
T1 construct: 0.1 mg/mL protein human liver microsomes (BD Gentest); tissue BD Gentest; host or cells: human liver microsomes
Nature of the experiment: Cocktail assay for CYPs in human liver microsomes: CYP3A4 (midazolam 1′-hydroxylation). The note with it: human liver microsomes 0.1 mg/mL, 2 μM midazolam, 10 min at 37° C., 6 concentrations up to 10 μM; read-out: IC50 (nM) CYP3A4. A general note: Liver microsomes are vesicles of endoplasmic reticulum, rich in cytochrome P450 enzymes.

Another experiment deals with T2, CYP1A2 (Homo sapiens, UniProt P05177).
T2 construct: 0.1 mg/mL protein human liver microsomes (BD Gentest); tissue BD Gentest; host or cells: human liver microsomes
T2 sequence (P05177 1-516): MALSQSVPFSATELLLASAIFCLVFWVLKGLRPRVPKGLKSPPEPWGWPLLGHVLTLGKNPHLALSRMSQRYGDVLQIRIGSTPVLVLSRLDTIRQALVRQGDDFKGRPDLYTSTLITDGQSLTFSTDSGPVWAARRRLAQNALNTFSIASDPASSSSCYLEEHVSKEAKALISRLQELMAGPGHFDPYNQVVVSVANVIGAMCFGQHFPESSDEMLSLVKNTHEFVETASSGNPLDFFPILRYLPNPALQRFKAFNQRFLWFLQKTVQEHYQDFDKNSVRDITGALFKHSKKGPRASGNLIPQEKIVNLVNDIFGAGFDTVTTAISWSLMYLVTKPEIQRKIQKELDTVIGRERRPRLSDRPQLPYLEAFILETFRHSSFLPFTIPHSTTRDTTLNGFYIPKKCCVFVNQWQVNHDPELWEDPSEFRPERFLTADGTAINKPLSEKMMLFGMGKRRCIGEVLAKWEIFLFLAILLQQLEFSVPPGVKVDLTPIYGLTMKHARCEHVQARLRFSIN
Kind of experiment: Cocktail assay for CYPs in human liver microsomes: CYP1A2 (phenacetin O-deethylation). The note with it: human liver microsomes 0.1 mg/mL, 10 μM phenacetin, 10 min at 37° C., 6 concentrations up to 10 μM; read-out: IC50 (nM) CYP1A2.

For the next experiment, the target named is T3, CYP2C9 (Homo sapiens, UniProt P11712).
T3 construct: 0.1 mg/mL protein human liver microsomes (BD Gentest); tissue BD Gentest; host or cells: human liver microsomes
T3 sequence (P11712 whole entry): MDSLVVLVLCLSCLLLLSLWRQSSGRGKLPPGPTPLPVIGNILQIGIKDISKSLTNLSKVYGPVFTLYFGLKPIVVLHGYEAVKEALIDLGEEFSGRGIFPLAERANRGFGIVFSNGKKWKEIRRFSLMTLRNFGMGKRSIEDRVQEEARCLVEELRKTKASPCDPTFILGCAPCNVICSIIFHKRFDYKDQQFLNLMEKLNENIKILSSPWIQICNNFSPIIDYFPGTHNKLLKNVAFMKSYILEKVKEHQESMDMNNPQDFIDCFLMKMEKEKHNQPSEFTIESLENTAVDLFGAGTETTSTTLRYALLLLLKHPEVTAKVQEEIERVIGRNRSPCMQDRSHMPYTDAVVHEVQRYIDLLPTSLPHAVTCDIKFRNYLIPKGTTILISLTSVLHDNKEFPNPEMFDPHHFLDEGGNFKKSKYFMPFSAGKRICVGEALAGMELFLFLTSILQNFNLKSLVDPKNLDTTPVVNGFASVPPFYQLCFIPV
Nature of the experiment: Cocktail assay for CYPs in human liver microsomes: CYP2C9 (diclofenac 4′-hydroxylation). The settings on record: human liver microsomes 0.1 mg/mL, 5 μM diclofenac, 10 min at 37° C., 6 concentrations up to 10 μM; read-out: IC50 (nM) CYP2C9.

The target of the next experiment is T4, CYP2C19 (Homo sapiens, UniProt P33261).
T4 construct: 0.1 mg/mL protein human liver microsomes (BD Gentest); tissue BD Gentest; host or cells: human liver microsomes
T4 sequence (P33261 whole entry): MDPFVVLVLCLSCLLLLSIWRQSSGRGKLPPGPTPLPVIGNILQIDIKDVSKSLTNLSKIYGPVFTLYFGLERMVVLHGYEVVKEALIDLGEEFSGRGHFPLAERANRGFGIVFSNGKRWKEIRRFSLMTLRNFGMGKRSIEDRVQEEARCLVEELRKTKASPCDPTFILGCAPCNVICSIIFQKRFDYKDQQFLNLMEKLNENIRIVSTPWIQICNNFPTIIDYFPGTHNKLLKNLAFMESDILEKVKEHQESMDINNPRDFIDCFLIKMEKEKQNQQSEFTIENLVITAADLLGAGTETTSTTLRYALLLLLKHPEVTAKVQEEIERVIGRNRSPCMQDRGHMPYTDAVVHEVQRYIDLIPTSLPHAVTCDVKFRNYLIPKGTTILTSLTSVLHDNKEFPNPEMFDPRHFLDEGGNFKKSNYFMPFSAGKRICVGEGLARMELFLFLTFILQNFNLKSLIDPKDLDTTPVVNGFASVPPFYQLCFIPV
Nature of the experiment: Cocktail assay for CYPs in human liver microsomes: CYP2C19 (mephenytoin 4′-hydroxylation). The settings on record: human liver microsomes 0.1 mg/mL, 30 μM mephenytoin, 10 min at 37° C., 6 concentrations up to 10 μM; read-out: IC50 (nM) CYP2C19.

The target of a further experiment is T5, CYP2D6 (Homo sapiens, UniProt P10635).
T5 construct: 0.1 mg/mL protein human liver microsomes (BD Gentest); tissue BD Gentest; host or cells: human liver microsomes
T5 sequence (P10635 whole entry): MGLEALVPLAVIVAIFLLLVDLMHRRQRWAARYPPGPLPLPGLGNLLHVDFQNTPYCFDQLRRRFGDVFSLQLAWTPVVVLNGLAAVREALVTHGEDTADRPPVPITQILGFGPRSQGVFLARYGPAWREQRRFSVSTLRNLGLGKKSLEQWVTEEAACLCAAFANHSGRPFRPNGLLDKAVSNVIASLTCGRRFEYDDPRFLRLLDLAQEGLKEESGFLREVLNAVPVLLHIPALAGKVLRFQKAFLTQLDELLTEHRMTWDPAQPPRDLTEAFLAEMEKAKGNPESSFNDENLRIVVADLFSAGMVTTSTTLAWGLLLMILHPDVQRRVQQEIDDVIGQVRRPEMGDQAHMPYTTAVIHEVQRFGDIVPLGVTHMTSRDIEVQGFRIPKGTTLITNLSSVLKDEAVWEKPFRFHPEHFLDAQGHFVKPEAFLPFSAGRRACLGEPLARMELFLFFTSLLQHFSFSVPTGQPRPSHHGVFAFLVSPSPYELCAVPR
Nature of the experiment: Cocktail assay for CYPs in human liver microsomes: CYP2D6 (dextromethorphan O-demethylation). The note with it: human liver microsomes 0.1 mg/mL, 5 μM dextromethorphan, 10 min at 37° C., 6 concentrations up to 10 μM; read-out: IC50 (nM) CYP2D6.

T1 sequence (P08684 whole entry): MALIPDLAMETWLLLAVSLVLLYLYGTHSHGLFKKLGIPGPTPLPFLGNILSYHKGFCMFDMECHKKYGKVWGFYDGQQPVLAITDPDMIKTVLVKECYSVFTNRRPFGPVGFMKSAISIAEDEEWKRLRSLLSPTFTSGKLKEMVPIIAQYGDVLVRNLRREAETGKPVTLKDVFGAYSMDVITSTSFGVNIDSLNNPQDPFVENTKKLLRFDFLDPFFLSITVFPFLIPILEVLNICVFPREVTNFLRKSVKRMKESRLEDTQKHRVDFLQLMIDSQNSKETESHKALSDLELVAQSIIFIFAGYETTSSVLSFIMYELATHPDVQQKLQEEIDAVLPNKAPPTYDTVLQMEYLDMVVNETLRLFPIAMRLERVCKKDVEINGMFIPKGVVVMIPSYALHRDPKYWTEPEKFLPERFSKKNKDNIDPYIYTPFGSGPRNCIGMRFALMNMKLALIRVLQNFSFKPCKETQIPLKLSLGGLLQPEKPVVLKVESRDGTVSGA
Protocol for CYP1A2: (§1) Determination of IC50 in a Cocktail Assay for CYPs 1A2, 2C9, 2C19, 2D6 and 3A4
(§2) This assay was performed in a standard 96-well plate design. […] The incubation substrate mix contains 10 μM phenacetin (1A2), 5 μM diclofenac (2C9), 30 μM mephenytoin (2C19), 5 μM dextromethorphan (2D6) and 2 μM midazolam (3A4), 0.1 mg/mL protein human liver microsomes (BD Gentest), 1 mM NAPDH, 3.3 mM MgCl2 and 100 mM potassium phosphate buffer (pH 7.4). The production of the metabolite of each probe substrate was determined after incubation for 10 min at 37° C. Quantitation of the metabolite peak area ratio against an internal standard (tolbutamide) was determined by LC/MS/MS analysis following acetonitrile treatment of the incubations.
(§3) Samples were analyzed in the MRM mode with a SCIEX API-4000 mass spectrometer (Applied Biosystems, Foster City, Calif.), with a Shimadzu LC-20 AD pump (Shimadzu corporation, Kyoto, JP) and a CTC PAL autosampler (Agilent Technologies, Switzerland). A Phenomenex, Luna, 5 μm, 100 A, 2.00×30 mm HPLC column was used for the separation. The mobile phases were: (A) 0.1% formic acid in water and (B) 0.1% formic acid in acetonitrile. The binary gradient was as follows.
(§4) The mass spectrum parameters were as follows:
(§5) The LC/MS/MS parameters for the analytes were as follows.
(§6) The peak area ratio of the analyte to the internal standard was used to quantify the metabolite. The values of peak area ratios in the presence of test compound were compared to those of maximum or minimum controls and were expressed as % inhibition by interpolating between the maximum and minimum peak area ratios. Incubations with no inhibitor were defined as the maxima.
(§7) The following equation was used to calculate the % inhibition: [1−[(X−Low control)/(High control−Low control)]]*100
(§8) For the IC50 calculation, SigmaPlot was used to plot the mean % inhibition versus the test compound concentrations and for non-linear regression analysis of the data. Depending on the range of data points defining the inhibition curve, the data may have been fit to the 4-parameter logistic equation.
Protocol for CYP2C19: as §1, §2, §3, §4, §5, §6, §7, §8
Protocol for CYP2D6: as §1, §2, §3, §4, §5, §6, §7, §8

Broadly, the IC50 is the concentration that inhibits the measured activity by half. Consider `C[C@H](c1ccc(C#N)cc1)n1cncc1CN1CCN(c2ccccc2)C(C(=O)N2CCCCC2)C1` (single isomer, unassigned) [Compound 45a], for which the IC50 is 12 nM on CYP3A4; over 10000 nM at CYP1A2; 7770 nM at CYP2C9; 5500 nM on CYP2C19; over 10000 nM at CYP2D6.
For `C[C@H](c1ccc(C#N)cc1)n1cncc1CN1CCN(c2ccccc2)C(C(=O)N2CCCCC2)C1` (single isomer, unassigned) [Compound 45b], the IC50 on CYP3A4 was 20 nM; at CYP1A2 it was over 10000 nM; at CYP2C9, 4000 nM; at CYP2C19, 5180 nM; at CYP2D6, over 10000 nM.
On to `C[C@H](c1ccc(F)cc1)n1cncc1CN1CCN(C(=O)c2ccccc2)C(c2ccccc2)C1` (single isomer, unassigned) [Compound 50a], for which the IC50 is 16 nM at CYP3A4; over 10000 nM at CYP1A2; 4360 nM at CYP2C9; 4330 nM at CYP2C19; 4000 nM on CYP2D6.
`C[C@H](c1ccc(F)cc1)n1cncc1CN1CCN(C(=O)c2ccccc2)C(c2ccccc2)C1` (single isomer, unassigned) [Compound 50b]: the IC50 on CYP3A4 is 5 nM; on CYP1A2 it was over 10000 nM; at CYP2C9, 1280 nM; on CYP2C19 it was 4400 nM; at CYP2D6 it was over 10000 nM.
`C[C@H](c1ccc(F)cc1)n1cncc1CN1CCN(C(=O)C2CCOCC2)C(c2ccccc2)C1` (single isomer, unassigned) [Compound 52a]: the IC50 on CYP3A4 was 7 nM; at CYP1A2, over 10000 nM; at CYP2C9, over 10000 nM; on CYP2C19 it was 8490 nM; at CYP2D6 it was over 10000 nM.
On to `C[C@H](c1ccc(F)cc1)n1cncc1CN1CCN(C(=O)C2CCOCC2)C(c2ccccc2)C1` (single isomer, unassigned) [Compound 52b], for which the IC50 is 27 nM on CYP3A4; over 10000 nM at CYP1A2; 6200 nM on CYP2C9; 3670 nM on CYP2C19; over 10000 nM at CYP2D6.
Turning to `CCC1(C#N)CCN(Cc2cncn2[C@H](C)c2ccc(F)cc2)CC1` [Compound 1, (R)-4-Ethyl-1-((1-(1-(4-fluorophenyl)ethyl)-1H-imidazol-5-yl)methyl)piperidine-4-carbonitrile], the IC50 was 20 nM on CYP3A4; over 10000 nM at CYP1A2; 7370 nM at CYP2C9; 6220 nM on CYP2C19; over 10000 nM on CYP2D6.
As for `CC(C)C1(C#N)CCN(Cc2cncn2[C@H](C)c2ccc(F)cc2)CC1` [Compound 2, (R)-1-((1-(1-(4-fluorophenyl)ethyl)-1H-imidazol-5-yl)methyl)-4-isopropylpiperidine-4-carbonitrile], the concentration for half-maximal inhibition (IC50) on CYP3A4 was 18 nM; at CYP1A2, over 10000 nM; on CYP2C9, over 10000 nM; at CYP2C19, over 10000 nM; at CYP2D6, over 10000 nM.
Consider `C[C@H](c1ccc(F)cc1)n1cncc1CN1CCC(C)(C#N)CC1` [Compound 3, (R)-1-((1-(1-(4-fluorophenyl)ethyl)-1H-imidazol-5-yl)methyl)-4-methylpiperidine-4-carbonitrile], for which the IC50 is 37 nM at CYP3A4; over 10000 nM on CYP1A2; over 10000 nM on CYP2C9; over 10000 nM at CYP2C19; 8710 nM at CYP2D6.
As to `CC1(C#N)CCN(Cc2cncn2Cc2nc3ccccc3s2)CC1` [Compound 4, 1-((1-(benzo[d]thiazol-2-ylmethyl)-1H-imidazol-5-yl)methyl)-4-methylpiperidine-4-carbonitrile], the IC50 is 58 nM on CYP3A4; over 10000 nM on CYP1A2; 3270 nM on CYP2C9; 2680 nM at CYP2C19; over 10000 nM at CYP2D6.
Consider `C[C@H](c1ccc(F)cc1)n1cncc1CN1CCC(C#N)(C2CCCC2)CC1` [Compound 5, (R)-4-cyclopentyl-1-((1-(1-(4-fluorophenyl)ethyl)-1H-imidazol-5-yl)methyl)piperidine-4-carbonitrile], for which the IC50 on CYP3A4 was determined as 15 nM; at CYP1A2, 5570 nM; at CYP2C9, 3250 nM; at CYP2C19 it was 3740 nM; on CYP2D6 it was 7330 nM.
For `CCCC1(C#N)CCN(Cc2cncn2[C@H](C)c2ccc(F)cc2)CC1` [Compound 6, (R)-1-((1-(1-(4-fluorophenyl)ethyl)-1H-imidazol-5-yl)methyl)-4-propylpiperidine-4-carbonitrile], in that order: 27 nM, over 10000 nM, 5670 nM, 7920 nM and 4960 nM.
For the molecule `C[C@H](c1ccc(F)cc1)n1cncc1CN1CCC(C#N)(C2CCOCC2)CC1` [Compound 7, (R)-1-((1-(1-(4-fluorophenyl)ethyl)-1H-imidazol-5-yl)methyl)-4-(tetrahydro-2H-pyran-4-yl)piperidine-4-carbonitrile], the IC50 on CYP3A4 is 21 nM; at CYP1A2 it was over 10000 nM; on CYP2C9 it was 8170 nM; at CYP2C19, over 10000 nM; at CYP2D6, 8480 nM.
With `CC(C)CC1(C#N)CCN(Cc2cncn2[C@H](C)c2ccc(F)cc2)CC1` [Compound 8, (R)-1-((1-(1-(4-fluorophenyl)ethyl)-1H-imidazol-5-yl)methyl)-4-isobutylpiperidine-4-carbonitrile], the IC50 at CYP3A4 came out at 22 nM; at CYP1A2, 9180 nM; at CYP2C9, 2530 nM; on CYP2C19 it was 3250 nM; on CYP2D6 it was 2490 nM.
In the same order, the values of `CCc1noc(C2(C)CCN(Cc3cncn3[C@H](C)c3ccc(F)cc3)CC2)n1` [Compound 9, (R)-3-ethyl-5-(1-((1-(1-(4-fluorophenyl)ethyl)-1H-imidazol-5-yl)methyl)-4-methylpiperidin-4-yl)-1,2,4-oxadiazole] are 21 nM, over 10000 nM, 2510 nM, 2270 nM and 2520 nM.
Consider `Cc1noc(C2(C)CCN(Cc3cncn3[C@H](C)c3ccc(F)cc3)CC2)n1` [Compound 10, (R)-5-(1-((1-(1-(4-fluorophenyl)ethyl)-1H-imidazol-5-yl)methyl)-4-methylpiperidin-4-yl)-3-methyl-1,2,4-oxadiazole], for which the IC50 at CYP3A4 was 17 nM; at CYP1A2, over 10000 nM; on CYP2C9, 2330 nM; on CYP2C19 it was 7020 nM; on CYP2D6, 2100 nM.
For `CC(C)c1noc(C2(C)CCN(Cc3cncn3[C@H](C)c3ccc(F)cc3)CC2)n1` [Compound 11, (R)-5-(1-((1-(1-(4-fluorophenyl)ethyl)-1H-imidazol-5-yl)methyl)-4-methylpiperidin-4-yl)-3-isopropyl-1,2,4-oxadiazole], in that order: 21 nM, 5070 nM, 2880 nM, 3310 nM and 5990 nM.

For the origin of these results see patent publication US10745377B2, “Piperidine or piperazine linked imidazole and triazole derivatives and methods of use” (MERCK SHARP & DOHME CORP., priority 2013, dated 2020).
